Test system: C2C12 muscle cells
Experiment: Analysis of glucose absorption (2-deoxyglucose) in differentiated C2C12 muscle cells
Type: cell-based
Conditions: test materials 10 μM, times relative to control group
How it was run: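 Differentiated C2C12 myotubes (6 days in 1% serum) held 3 h in KRB with 5 mM glucose, then given test material at 10 μM. After 30 min, 0.2 μCi 2-deoxyglucose added for 20 min; uptake measured by radioactive counting of NaOH lysates.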

SMILES: c1cncc(-c2nc(NCc3ccc4c(c3)OCO4)c3ccccc3n2)c1 [Compound 242, Benzo[1,3]dioxol-5-ylmethyl-(2-pyridino-3-ylquinazolino-4-yl)-amine]
- Glucose absorption: 0.9

SMILES: Fc1cccc(CNc2nc(-c3cccnc3)nc3ccccc23)c1 [Compound 243, (3-Fluorobenzyl)-(2-pyridino-3-ylquinazolino-4-yl)-amine]
- Glucose absorption: 1.4

SMILES: Fc1cccc(CCNc2nc(-c3cccnc3)nc3ccccc23)c1 [Compound 244, [2-(3-Fluorophenyl)-ethyl]-(2-pyridino-3-ylquinazolino-4-yl)-amine]
- Glucose absorption: 0.4

SMILES: OCCOCCNc1nc(-c2cccnc2)nc2ccccc12 [Compound 245, 2-[2-(2-Pyridino-3-ylquinazolino-4-ylamino)-ethoxy]-ethanol]
- Glucose absorption: 1.2

SMILES: OCCNc1nc(-c2cccnc2)nc2ccccc12 [Compound 246, 2-(2-Pyridino-3-ylquinazolino-4-ylamino)-ethanol]
- Glucose absorption: 1.2

SMILES: c1ccc(CNc2nc(-c3ccncc3)nc3ccccc23)cc1 [Compound 247, Benzyl-(2-pyridino-4-ylquinazolino-4-yl)-amine]
- Glucose absorption: 1.3

SMILES: COc1cccc(CNc2nc(-c3ccncc3)nc3ccccc23)c1 [Compound 248, (3-Methoxybenzyl)-(2-pyridino-4-ylquinazolino-4-yl)-amine]
- Glucose absorption: 1.4

SMILES: COc1ccc(CNc2nc(-c3ccncc3)nc3ccccc23)cc1 [Compound 249, (4-Methoxybenzyl)-(2-pyridino-4-ylquinazolino-4-yl)-amine]
- Glucose absorption: 0.9

SMILES: FC(F)(F)c1cccc(CNc2nc(-c3ccncc3)nc3ccccc23)c1 [Compound 250, (2-Pyridino-4-ylquinazolino-4-yl)-(3-trifluoromethylbenzyl)-amine]
- Glucose absorption: 1.3

SMILES: c1ccc(CCNc2nc(-c3ccncc3)nc3ccccc23)cc1 [Compound 251, Phenethyl-(2-pyridino-4-ylquinazolino-4-yl)-amine]
- Glucose absorption: 0.6

SMILES: c1ccc(CCCCNc2nc(-c3ccncc3)nc3ccccc23)cc1 [Compound 252, (4-Phenylbutyl)-(2-pyridino-4-ylquinazolino-4-yl)-amine]
- Glucose absorption: 0.9

SMILES: c1ccc2c(CNc3nc(-c4ccncc4)nc4ccccc34)cccc2c1 [Compound 253, Naphthaleno-1-ylmethyl-(2-pyridino-4-ylquinazolino-4-yl)-amine]
- Glucose absorption: 1.3

SMILES: c1ccc2c(NCc3ccc4c(c3)OCO4)nc(-c3ccncc3)nc2c1 [Compound 254, Benzo[1,3]dioxol-5-ylmethyl-(2-pyridino-4-ylquinazolino-4-yl)-amine]
- Glucose absorption: 1.4

SMILES: Fc1cccc(CNc2nc(-c3ccncc3)nc3ccccc23)c1 [Compound 255, (3-Fluorobenzyl)-(2-pyridino-4-ylquinazolino-4-yl)-amine]
- Glucose absorption: 1.3

SMILES: Fc1cccc(CCNc2nc(-c3ccncc3)nc3ccccc23)c1 [Compound 256, [2-(3-Fluorophenyl)-ethyl]-(2-pyridino-4-ylquinazolino-4-yl)-amine]
- Glucose absorption: 0.6

SMILES: OCCOCCNc1nc(-c2ccncc2)nc2ccccc12 [Compound 257, 2-[2-(2-Pyridino-4-ylquinazolino-4-ylamino)-ethoxy]-ethanol]
- Glucose absorption: 1.4

SMILES: OCCNc1nc(-c2ccncc2)nc2ccccc12 [Compound 258, 2-(2-Pyridino-4-ylquinazolino-4-ylamino)-ethanol]
- Glucose absorption: 1.3

SMILES: Clc1ccc(-c2nc(NCc3ccccc3)c3ccccc3n2)cc1 [Compound 259, Benzyl-[2-(4-chlorophenyl)-quinazolino-4-yl]-amine]
- Glucose absorption: 1.4

SMILES: COc1cccc(CNc2nc(-c3ccc(Cl)cc3)nc3ccccc23)c1 [Compound 260, [2-(4-chlorophenyl)-quinazolino-4-yl]-(3-methoxybenzyl)-amine]
- Glucose absorption: 1.4

SMILES: COc1ccc(CNc2nc(-c3ccc(Cl)cc3)nc3ccccc23)cc1 [Compound 261, [2-(4-Chlorophenyl)-quinazolino-4-yl]-(4-methoxybenzyl)-amine]
- Glucose absorption: 1.1
